Like-named read-outs stand apart in the source and are kept apart here.
How the values were obtained:
[1] = system: Human Foreskin Fibroblasts (HFF)
Experimental: (§2) Cellular cytotoxicity was determined using CellTiter-Glo® Luminescent Cell Viability Assay (Promega, Madison, Wis.). The assay determines the number of viable cells in culture based on quantification of the ATP present.
(§3) For EC50 and CC50 reported values represent the mean and SD of data derived from at least five independent experiments performed in triplicates.

[2] = biological target: pp 28-luciferase expressing CMV (Towne); experiment: microbe, parasite or virus in culture; type: cell-based, human CMV; settings: for inhibition of CMV replication: different batches and passages of HFF, and HEL cells
Description: A recombinant virus expressing luciferase reporter gene under the control of UL99 (pp 28) late promoter was generated by insertion of the reporter gene between the US9 and US10 ORFs in the Towne genome. […] Ahn J H, Hayward G S. Disruption of PML-associated nuclear bodies by IE1 correlates with efficient early stages of viral gene expression and DNA replication in human cytomegalovirus infection. Virology. 2000; 274:39-55.
(§1) Towne-GFP, Towne-luciferase, and SB viruses were used in these assays. HFF or HEL were grown to subconfluent monolayers and infected with the CMV viruses at MOI 0.1 to 3. […] J Mol Med. 2002; 80:233-242. The concentration of each compound was calculated and adjusted by volume such that it was constant throughout the experiment. Following 90 minute incubation, media was replaced with fresh media containing the drug used. Infected and treated cells were incubated at 37° C. in a 5% CO2 atmosphere for 3-10 days depending on the virus and the anti-viral assay. The recombinant luciferase-expressing virus was incubated for 72 hours, the GFP virus was incubated for 5 days, and the clinical isolate for 10 days. All experiments were subsequently repeated with compounds added to wells just after viral inoculation.

[3] = system: CMV IE1 protein expression; experiment: Western blot for CMV immediate early protein IE1 (and GFP); type: cell-based, human CMV; set-up: expression of IE1 and GFP: dose or concentration left out as unconfirmed; settings: for expression of IE1 and GFP: Towne-GFP, artemisinin; for IE1 expression: clinical isolate SB, MOI=1
Experimental: Monoclonal antibodies to CMV immediate early proteins IE-1 and IE-2 (MAb810) and to cellular β-actin were purchased from Millipore (Billerica, Mass.). Confluent cells were infected with CMV in the presence of artemisinin compounds. At the indicated times cells were harvested in sample buffer (RIPA buffer, Tris 50 mM, Nacl 150 mM, SDS 0.1%, Na Deoxycholate 0.5%, NP40 1%, and protease inhibitor cocktail), boiled and loaded onto SDS-PAGE. Proteins were separated by electrophoresis and transferred to nitrocellulose membrane. After blocking, blots were probed with primary antibody (1:3,000) overnight at 4° C. in phosphate-buffered saline, and Tween. After washing 3 times, blots were probed with HRP-conjugated anti-mouse (Sigma), 1:5,000 for 1 hour at room temperature. Blots were washed three times in phosphate-buffered saline/Tween, and then developed by enhanced chemiluminescence according to manufacturer protocol.
The expression of CMV immediate early (IE) protein was tested by western blot to determine whether artemisinins' inhibition of CMV replication occurs early in the virus life cycle. […] Further evidence for the early effect of artemisinins on IE1 protein expression was obtained with the clinical isolate (SB, FIG. 5b). […] Stinski M F. Sequence of protein synthesis in cells infected by human cytomegalovirus: early and late virus-induced polypeptides. J Virol. 1978; 26:686-701.

[4] = system: GFP-tagged CMV (Towne-GFP); experiment: GFP-tagged CMV replication in pretreated HFF; type: cell-based, human CMV; settings: pretreatment of HFF with different concentrations; data not shown
Experimental: The CMV strains used for infections were the highly-passaged Towne virus, and a clinical isolate obtained from the urine of a neonate with congenital CMV infection (SB) and passaged once in tissue culture. […] Initial experiments were performed using a recombinant human CMV-green fluorescent protein (GFP) virus, derived from Towne strain. […] J Virol.
as §1

[5] = system: Human Foreskin Fibroblasts (HFF); experiment: Cellular cytotoxicity, CellTiter-Glo Luminescent Cell Viability Assay; settings: drug concentration that leads to 50% cellular cytotoxicity; mean and SD, at least five experiments in triplicates
Experimental: as §2, §3

CMV clinical isolates = settings: 11.1 μM; cited from earlier work
[6] = system: Toxoplasmosis (Toxoplasma gondii); experiment: Anti-toxoplasmosis activity of supernatants of CMV infected cells; type: cell-based; settings: supernatants of CMV infected cells at 3-5 days post infection
Experimental: To confirm that the difference in anti-CMV activity between monomers and dimers was not a result of instability of the monomers in tissue culture, the anti-toxoplasmosis activity of these compounds was determined in the supernatants of CMV infected cells at 3-5 days post infection. […] Antimicrob Agents Chemother. 2006; 50:4206-4208.

[7] = system: recombinant luciferase-expressing CMV; experiment: Plaque reduction assay in human embryonic lung cells (HEL); type: cell-based, human CMV; settings: 10 μM, luciferase virus
Experimental: For plaque reduction assay, human embryonic lung cells were seeded into six-well plates and incubated at 37° C. one day prior to infection with the recombinant luciferase-expressing CMV. […] The virus was diluted to a desired concentration which gave 50-60 plaques per well. Medium was aspirated from the wells, and 0.2 ml of virus suspension was added to each well in triplicates. Plates were incubated for 90 minutes with shaking every 10 min, thereafter drugs were added and a methylcellulose overlay applied to each well. After incubation for 10 days, cells were stained with crystal violet. The stain was aspirated, wells were washed with phosphate-buffered saline, and plaques were counted.

`C[C@H]1[C@@H](CCC(=O)Nc2ccc(F)cc2)O[C@@H]2OC3(C)CC[C@H]4[C@H](C)CC[C@@H]1[C@@]24OO3` [Artefanilide (3), Artefanilide] showed a CC50 [1] of 44.9 ± 3.4 µM and an EC50 ([2]; Table 1, 50% virus inhibition, mean and SD, at least five experiments in triplicates, read-out: EC50) of 8.1 ± 2.2 µM.
With `C[C@@H]1CC[C@H]2[C@@H](C)C(=O)O[C@@H]3O[C@@]4(C)CC[C@@H]1[C@]32OO4` [Artemisinin (1), Artemisinin] the “expression of IE1 and GFP” value ([3]; MOI of 0.1) was “undetectable”, the “expression of IE1 and GFP” value ([3]; MOI of 0.5) was “decreased” and the CMV replication [4] was “dose-dependent reduction”.
In the case of `C[C@H]1[C@H](OC(=O)CCC(=O)O)O[C@@H]2O[C@@]3(C)CC[C@H]4[C@H](C)CC[C@@H]1[C@@]24OO3` [Artesunate (2d), Artesunate], the CC50 [5] is listed as 77.5 ± 14.4 µM, the “in-vitro inhibition of clinical isolates” value (CMV clinical isolates) is listed as 50-80% and the EC50 ([2]; Human betaherpesvirus 5) is listed as 18.5 ± 5.2 µM.
With `C[C@H]1[C@@H](CC(COP(=O)(Oc2ccccc2)Oc2ccccc2)C[C@H]2O[C@@H]3O[C@@]4(C)CC[C@H]5[C@H](C)CC[C@@H]([C@H]2C)[C@@]35OO4)O[C@@H]2O[C@@]3(C)CC[C@H]4[C@H](C)CC[C@@H]1[C@@]24OO3` (stereo partly drawn) [Dimer isobu-OP(O)(OPh)2] the “rank as CMV inhibitor among eight representative dimers” value ([2]; FIGS. 7 and 8) was “most potent” and the selectivity index ([2]; eight representative dimers, FIGS. 7 and 8) was > 1000.
In the case of `C[C@H]1[C@@H](CC(CO)C[C@H]2O[C@@H]3O[C@@]4(C)CC[C@H]5[C@H](C)CC[C@@H]([C@H]2C)[C@@]35OO4)O[C@@H]2O[C@@]3(C)CC[C@H]4[C@H](C)CC[C@@H]1[C@@]24OO3` (stereo partly drawn) [Dimer primary alcohol (4)], the EC50 [6] is reported as 0.4 ± 0.15 µM, the “inhibition of CMV replication” value [2] is reported as “dramatic inhibition” and the “time post infection at which inhibition of IE1 expression was observed (as early as)” value ([3]; SB, MOI=3, prior to onset of DNA replication) is reported as 12 h. For the same molecule, the IE1 expression ([3]; 1-μM, 24 and 48 hr) was “significantly reduced”.
With `C[C@H]1[C@@H](CC(C[C@H]2O[C@@H]3O[C@@]4(C)CC[C@H]5[C@H](C)CC[C@@H]([C@H]2C)[C@@]35OO4)CS(=O)(=O)c2ccc(COC(=O)N(C)C)cc2)O[C@@H]2O[C@@]3(C)CC[C@H]4[C@H](C)CC[C@@H]1[C@@]24OO3` (stereo partly drawn) [Dimer sulfone carbamate (6)] the “inhibition of CMV replication” value [2] was “dramatic inhibition”.
For `Nc1nc(O)c2ncn(COC(CO)CO)c2n1` [GCV, Ganciclovir], the “reduction in plaque formation” value [7] was 80%, the “CMV inhibition compared with the four monomers” value ([2]; 10 μM, FIG. 2) was “more potent” and the IE1 expression ([3]; 10 μM) was “not affected”.

From patent publication US8883765B2, “Anti-cytomegalovirus activity of artemisinin-derived dimers” (The John Hopkins University, priority 2009, dated 2014)
